According to paper PMC6597546, “Identification of a potent benzoxaborole drug candidate for treating cryptosporidiosis” (Nature Communications, 2019):
Where “and” joins values, the source holds several entries; their conditions need not be identical. Equal values may be shown once.

Tested on: C. parvum (Bunch Grass Farms Iowa isolate)
Test: Neonatal calf model of cryptosporidiosis
Format: in vivo
Design: key to Oocyst Shedding, individual calves / Oocyst Shedding: C. parvum abundance per gram of fecal dry matter (qPCR); key to Fecal Consistency Score, individual calves / Fecal Consistency Score: score 1 = normal, 3 = severely abnormal
Method: All calf efficacy studies were performed as previously described. These studies were approved by the University of Vermont Institutional animal Care and Use Committee, and conducted in compliance with the USDA-APHIS “Blue Book”, available at www.aphis.usda.gov/animal-welfare. Holstein bull calves were acquired at birth from Green Mountain Dairy (Sheldon, VT), given synthetic colostrum with 200 g of IgG (Land O’Lakes, Ardent Hills, MO) and bovine coronavirus and Escherichia coli antibodies (First Defense Bolus, Immuncell Corporation, Portland, ME) within 2 h of birth, and transported to UVM. Calves were group-housed initially, and infected at 24–48 h of age during an interruption in bottle feeding by oral administration of ∼5 × 10^7 C. parvum Iowa isolate oocysts (Bunch Grass Farms, Deary, ID) suspended in 10 mL of water. They were then moved to individual raised pens, and observed twice daily at feeding times for clinical signs, which were quantified according to a previously described standardized scoring rubric. Data on fecal consistency, dehydration and overall health were collected, in each case with a score of 1 being normal and 3 being severely abnormal (scoring rubric in Supplementary Table 2). Clinical microbiologic studies for adventitious infectious agents including Salmonella culture, aerobic bacterial culture with E. coli genotyping, rotavirus, and coronavirus testing were performed on all calves at the onset of diarrhea by the Cornell Animal Health Diagnostic Center (Ithaca, NY). Animals with severe diarrhea or other symptoms were supported aggressively, including with administration of oral electrolytes, intravenous fluids and flunixin meglumine (Banamine, Merck) as needed. […] Daily fecal samples were obtained from collections bins located under each pen. Fecal samples used for parasite quantification were dried at 90 °C until stable in weight, and C. parvum abundance per gram of fecal dry matter was measured using qPCR and the primers Cp18s forward and Cp18s reverse.

[1] = 5 mg per kg twice daily oral, days 2–8
[2] = 6.67 mg/kg every 8 h for three days, Calf 1, Day 0
[3] = 6.67 mg/kg every 8 h for three days, Calf 1, Day 1
[4] = 6.67 mg/kg every 8 h for three days, Calf 1, Day 2
[5] = 6.67 mg/kg every 8 h for three days, Calf 1, Day 3
[6] = 6.67 mg/kg every 8 h for three days, Calf 1, Day 4
[7] = 6.67 mg/kg every 8 h for three days, Calf 1, Day 5
[8] = 6.67 mg/kg every 8 h for three days, Calf 1, Day 6
[9] = 6.67 mg/kg every 8 h for three days, Calf 1, Day 7
[10] = 6.67 mg/kg every 8 h for three days, Calf 1, Day 8
[11] = 6.67 mg/kg every 8 h for three days, Calf 1, Day 9
[12] = 6.67 mg/kg every 8 h for three days, Calf 1, Day 10
[13] = 6.67 mg/kg every 8 h for three days, Calf 1, Day 11
[14] = 6.67 mg/kg every 8 h for three days, Calf 1, Day 12
[15] = 6.67 mg/kg every 8 h for three days, Calf 1, Day 13
[16] = 6.67 mg/kg every 8 h for three days, Calf 1, Day 14
[17] = 6.67 mg/kg every 8 h for three days, Calf 2, Day 0
[18] = 6.67 mg/kg every 8 h for three days, Calf 2, Day 1
[19] = 6.67 mg/kg every 8 h for three days, Calf 2, Day 2
[20] = 6.67 mg/kg every 8 h for three days, Calf 2, Day 3
[21] = 6.67 mg/kg every 8 h for three days, Calf 2, Day 4
[22] = 6.67 mg/kg every 8 h for three days, Calf 2, Day 5
[23] = 6.67 mg/kg every 8 h for three days, Calf 2, Day 6
[24] = 6.67 mg/kg every 8 h for three days, Calf 2, Day 7
[25] = 6.67 mg/kg every 8 h for three days, Calf 2, Day 8
[26] = 6.67 mg/kg every 8 h for three days, Calf 2, Day 9
[27] = 6.67 mg/kg every 8 h for three days, Calf 2, Day 10
[28] = 6.67 mg/kg every 8 h for three days, Calf 2, Day 11
[29] = 6.67 mg/kg every 8 h for three days, Calf 2, Day 12
[30] = 6.67 mg/kg every 8 h for three days, Calf 2, Day 13
[31] = 6.67 mg/kg every 8 h for three days, Calf 2, Day 14
[32] = 6.67 mg/kg every 8 h for three days, Calf 3, Day 0
[33] = 6.67 mg/kg every 8 h for three days, Calf 3, Day 1
[34] = 6.67 mg/kg every 8 h for three days, Calf 3, Day 2
[35] = 6.67 mg/kg every 8 h for three days, Calf 3, Day 3
[36] = 6.67 mg/kg every 8 h for three days, Calf 3, Day 4
[37] = 6.67 mg/kg every 8 h for three days, Calf 3, Day 5
[38] = 6.67 mg/kg every 8 h for three days, Calf 3, Day 6
[39] = 6.67 mg/kg every 8 h for three days, Calf 3, Day 7
[40] = 6.67 mg/kg every 8 h for three days, Calf 3, Day 8
[41] = 6.67 mg/kg every 8 h for three days, Calf 3, Day 9
[42] = 6.67 mg/kg every 8 h for three days, Calf 3, Day 10
[43] = 6.67 mg/kg every 8 h for three days, Calf 3, Day 11
[44] = 6.67 mg/kg every 8 h for three days, Calf 3, Day 12
[45] = 6.67 mg/kg every 8 h for three days, Calf 3, Day 13
[46] = 6.67 mg/kg every 8 h for three days, Calf 3, Day 14
[47] = 10 mg per kg twice daily for 7 days begun day 4
[48] = 10 mg/kg every 12 h with delayed start, Calf 1, Day 0
[49] = 10 mg/kg every 12 h with delayed start, Calf 1, Day 1

CC1(C)OB(O)c2cc(NC(=O)c3ccc(-n4cccn4)cc3Cl)ccc21 [AN7973]
effect on diarrhea [1]: completely eliminated diarrhea
effect on parasite shedding [1]: curtailed parasite shedding
AUC for the dehydration scores, individual animals (5 mg/kg BID): 0
AUC for the diarrhea scores, individual animals (5 mg/kg BID): 0
Oocyst Shedding, individual calves (5 mg/kg every 12 h on days 2–8, Day 0): 100
Oocyst Shedding, individual calves (5 mg/kg every 12 h on days 2–8, Day 1): 100 and 583
Oocyst Shedding, individual calves (5 mg/kg every 12 h on days 2–8, Day 2): 4179 and 2794
Oocyst Shedding, individual calves (5 mg/kg every 12 h on days 2–8, Day 3): 46248 and 34331
Oocyst Shedding, individual calves (5 mg/kg every 12 h on days 2–8, Day 4): 68492 and 55772
Oocyst Shedding, individual calves (5 mg/kg every 12 h on days 2–8, Day 6): 265539 and 3628
Oocyst Shedding, individual calves (5 mg/kg every 12 h on days 2–8, Day 7): 39302 and 2599
Oocyst Shedding, individual calves (5 mg/kg every 12 h on days 2–8, Day 8): 43202 and 100
Oocyst Shedding, individual calves (5 mg/kg every 12 h on days 2–8, Day 9): 146 and 100
Oocyst Shedding, individual calves (5 mg/kg every 12 h on days 2–8, Day 10): 611 and 192
effect on diarrhea (6.67 mg per kg three times per day for 3 days): eliminated diarrhea
reduction of the rate of parasite shedding during treatment (6.67 mg per kg three times per day for 3 days, parasitological relapse followed): ~3 log
AUC for the dehydration scores, individual animals (6.67 mg/kg TID (3 days)): 0 and 0.3333
AUC for the diarrhea scores, individual animals (6.67 mg/kg TID (3 days)): 0 and 1.333
Fecal Consistency Score [2]: 1
Oocyst Shedding [2]: 415
Fecal Consistency Score [3]: 1
Oocyst Shedding [3]: 1163
Fecal Consistency Score [4]: 1
Oocyst Shedding [4]: 989897
Fecal Consistency Score [5]: 1
Oocyst Shedding [5]: 285174
Fecal Consistency Score [6]: 1
Oocyst Shedding [6]: 27986
Fecal Consistency Score [7]: 1
Oocyst Shedding [7]: 2214
Fecal Consistency Score [8]: 1
Oocyst Shedding [8]: 10466
Fecal Consistency Score [9]: 1
Oocyst Shedding [9]: 16062
Fecal Consistency Score [10]: 1
Oocyst Shedding [10]: 525550
Fecal Consistency Score [11]: 1
Oocyst Shedding [11]: 522608
Fecal Consistency Score [12]: 1
Oocyst Shedding [12]: 905562
Fecal Consistency Score [13]: 1
Oocyst Shedding [13]: 8303500
Fecal Consistency Score [14]: 1
Oocyst Shedding [14]: 134619
Fecal Consistency Score [15]: 1
Oocyst Shedding [15]: 473515
Fecal Consistency Score [16]: 1
Oocyst Shedding [16]: 35244
Fecal Consistency Score [17]: 2
Oocyst Shedding [17]: 1
Fecal Consistency Score [18]: 2
Oocyst Shedding [18]: 16497
Fecal Consistency Score [19]: 1
Oocyst Shedding [19]: 909
Fecal Consistency Score [20]: 1
Oocyst Shedding [20]: 179330
Fecal Consistency Score [21]: 1
Oocyst Shedding [21]: 38982
Fecal Consistency Score [22]: 1
Oocyst Shedding [22]: 6563
Fecal Consistency Score [23]: 1
Oocyst Shedding [23]: 1
Fecal Consistency Score [24]: 1
Oocyst Shedding [24]: 1
Fecal Consistency Score [25]: 1
Oocyst Shedding [25]: 1
Fecal Consistency Score [26]: 1
Oocyst Shedding [26]: 1
Fecal Consistency Score [27]: 1
Oocyst Shedding [27]: 162
Fecal Consistency Score [28]: 1
Oocyst Shedding [28]: 82
Fecal Consistency Score [29]: 1
Oocyst Shedding [29]: 1213
Fecal Consistency Score [30]: 1
Oocyst Shedding [30]: 387
Fecal Consistency Score [31]: 1
Oocyst Shedding [31]: 188
Fecal Consistency Score [32]: 1
Oocyst Shedding [32]: 1089
Fecal Consistency Score [33]: 1
Oocyst Shedding [33]: 3597
Fecal Consistency Score [34]: 1.33
Oocyst Shedding [34]: 9022387
Fecal Consistency Score [35]: 1.67
Oocyst Shedding [35]: 2560722
Fecal Consistency Score [36]: 1.5
Oocyst Shedding [36]: 582683
Fecal Consistency Score [37]: 1
Oocyst Shedding [37]: 6828
Fecal Consistency Score [38]: 1
Oocyst Shedding [38]: 54223
Fecal Consistency Score [39]: 1
Oocyst Shedding [39]: 8461
Fecal Consistency Score [40]: 1
Oocyst Shedding [40]: 2785
Fecal Consistency Score [41]: 1
Oocyst Shedding [41]: 50511
Fecal Consistency Score [42]: 1
Oocyst Shedding [42]: 198125
Fecal Consistency Score [43]: 1.33
Oocyst Shedding [43]: 100223
Fecal Consistency Score [44]: 1
Oocyst Shedding [44]: 154951
Fecal Consistency Score [45]: 1
Oocyst Shedding [45]: 141133
Fecal Consistency Score [46]: 1.5
Oocyst Shedding [46]: 78359
effect on parasite shedding and diarrhea (10 mg per kg once daily oral, days 2–8, shedding resumed and persisted): reduced peak parasite shedding and diarrhea
parasite shedding [47]: abolished by day 14
reduction of total parasite shedding [47]: greater than 1 log
diarrhea cured faster than in controls (10 mg per kg twice daily for 7 days begun day 4 (peak of symptoms)): 3 days
AUC for the dehydration scores, individual animals (10 mg/kg BID (delayed start)): 0.3333 and 0 and 0.8333
AUC for the diarrhea scores, individual animals (10 mg/kg BID (delayed start)): 1.167 and 2.333 and 2.833
AUC for the dehydration scores, individual animals (10 mg/kg QD): 0.3333 and 0.5
AUC for the diarrhea scores, individual animals (10 mg/kg QD): 2.5 and 1.833 and 2.167
Fecal Consistency Score [48]: 1.67
Oocyst Shedding [48]: 1
Fecal Consistency Score [49]: 2
Oocyst Shedding [49]: 735
